Measured values: patent publication US20240343699A1, “DERIVATIVES OF SUBSTITUTED MORPHOLINES AND USES THEREOF” (Supernus Pharmaceuticals, Inc., priority 2023, published 2024)
Like-named read-outs stand apart in the source and are kept apart here.

Tests used:
sleep/wake and cataplexy = type: in vivo, male DTA mice
recognition memory = experiment: Novel object recognition, scopolamine-impairment model, 3 hr retention interval
[1] = Stability in human plasma with protease inhibitor cocktail and individual amidase/esterase inhibitors; type: in vitro ADME
Experimental: Plasma Preparation. Whole blood was centrifuged at 1174×g for 30 min. Aliquots of the supernatant were then transferred to 5 mL centrifuge tubes.
Stability of COMPOUND A in Human and Rat Plasma (circulating enzymes) in the Presence of Protease Inhibitor Cocktail. COMPOUND A was added to plasma with and without protease inhibitor cocktail and incubated to study inhibition of test article (COMPOUND A) degradation. […] Plasma with and without inhibitor cocktail was aliquoted into 1.5 mL tubes to a volume of 950 μL, then preincubated for 15 min. An aliquot (50 μL) of test article stock solution was added to plasma with and without inhibitor and tubes were vortexed then incubated at 37° C. Degradation began with the addition of test article. Aliquots (50 μL) were taken at 0, 15, 30, 60, and 120 min after being vortexed and were quenched in 150 μL acetonitrile/0.1% formic acid solution and briefly vortexed then immediately frozen at −80° C. Stability was determined by measuring loss of parent compound using LC/MS/MS methods. Each exposure condition and time point were done in triplicate.
Stability of COMPOUND A in Human and Rat Plasma (circulating enzymes) in the Presence of Individual Protease Inhibitors. In addition to using a cocktail of protease inhibitors, individual inhibitors were used in plasma. […] Stability was determined by measuring loss of parent compound using LC/MS/MS methods. […]

cognitive flexibility = experiment: Operant set-shifting test against PCP; type: in vivo, male Wistar rats
Experimental: This assay serves as a model of impaired executive function associated with neuropsychiatric disorders like schizophrenia. The aim of this study was to evaluate COMPOUND C to reverse deficits observed with PCP on cognitive flexibility using the operant set-shifting test in the rat.
Substances & Formulation.
Doses were prepared by separate weighing (W/V). COMPOUND C formulations were prepared fresh on each dosing day and dosing was completed within 8 hours of formulation. Phencyclidine (PCP) hydrochloride, white powder, was dissolved in physiological saline by magnetic stirring, fresh each day of dosing.
Test System. 78 male Wistar rats were supplied for this study. • 72 rats, 8-9 weeks old, weighing 218-299 g at the beginning of the visual discrimination were submitted to the entire behavioral testing and assigned to match groups based on their performance during the second visual discrimination session. • 6 spare rats were submitted to lever pressing, side bias and visual discrimination but were discarded for the testing period (set-shift and reversal)
The experimental protocol which detects effects on behavioral flexibility follows that described by Floresco et al. (Behav. Brain Res., 190, 85-96 (2008)).
Apparatus. The apparatus consists of standard Med Associates ENV-008 Skinner boxes (30×25×30 cm) fitted with a house light, two retractable levers and a food pellet dispenser. The levers are located on either side of the food receptacle connected to the pellet dispenser. A light emitting diode stimulus light is positioned centrally above each lever and served as a stimulus for visual-cue discrimination learning.
Acquisition of lever-pressing (training). The aim of this phase was to train animals to lever-press to receive a food pellet reward.
Side bias. On the last day of training, the side bias for the rat was determined. The session was similar to the lever pressing session except that both levers were inserted into the chamber together (i.e. 90 levers presentations every 20 seconds). Again, the stimulus lights above each of the levers were not illuminated during this training session. On the first levers presentation, a food pellet was delivered after responding on either lever. Upon subsequent insertion of the levers, food was delivered only if the rat responded on the lever opposite to the one chosen initially. If the rat chose the same lever to the initial choice, no food was delivered. This continued until the rat chose the lever opposite to the one chosen initially. After choosing both levers, a new trial commenced. Thus, one trial for the side bias procedure consisted of responded on both levers. The sessions terminated after 90 levers presentations or after completion of 21 trials.
Visual-cue discrimination learning. After determining the side bias, animals were submitted to visual-cue discrimination learning.
A session began with both levers retracted and the chamber in darkness (the inter-trial state). Every 20 seconds, a trial began with illumination of one of the stimulus lights above one of the levers. 3 seconds later, the house light was illuminated, and both levers were inserted into the chamber. […] After food delivery, the house light remained on for another 4 seconds, after which the chamber returned to the inter-trial state. If the rat responded on the other lever (incorrect response), both levers retracted immediately without food delivery and the chamber reverted to the inter-trial state.

[2] = COMPOUND A 30, 90 and 120 mg/kg, first 6 h
[3] = COMPOUND A 90 and 120 mg/kg, ZT19-ZT24
[4] = COMPOUND A 90 and 120 mg/kg, first 6 h
[5] = all concentrations of COMPOUND A, first 6 h

Structure (SMILES): CCOc1ccccc1OC[C@@H]1CN(C(=O)OC(C)OC(=O)[C@@H](N)C(C)C)CCO1 (stereo partly drawn) [COMPOUND A]
- W and NREM (hourly, cumulative and total time) (sleep/wake and cataplexy; COMPOUND A 30 mg/kg, ZT19-ZT24): W increased overall (treatment effect) and NREM decreased overall
- C levels during ZT24 (sleep/wake and cataplexy; COMPOUND A 120 mg/kg): approximately half of vehicle levels
- NREM (hourly, cumulative and total time) (sleep/wake and cataplexy; COMPOUND A 120 mg/kg, ZT19-ZT24): NREM increased overall
- latency to REM (sleep/wake and cataplexy; COMPOUND A 10, 30, 90, 120 mg/kg p.o., first 6 h of dark period): increased the latency to REM
- number of C bouts (sleep/wake and cataplexy; [2]): the number of C bouts decreased overall
- total NREM time (sleep/wake and cataplexy; [2]): total NREM time increased
- total time in C (cataplexy) (sleep/wake and cataplexy; [2]): total time in C decreased
- REM and C during the 6-h recording (sleep/wake and cataplexy; COMPOUND A 90 and 120 mg/kg): practically eliminated
- REM:NR ratios (sleep/wake and cataplexy; [3]): REM:NR ratios decreased
- latency to REM (sleep/wake and cataplexy; [3]): The latency to REM increased
- LMA (sleep/wake and cataplexy; [4]): LMA decreased overall
- Total W time (sleep/wake and cataplexy; [4]): Total W time decreased
- C (cataplexy) (sleep/wake and cataplexy; COMPOUND A two highest concentrations, ZT19-ZT24): significantly decreased
- NREM alpha, beta and high gamma EEG power (sleep/wake and cataplexy; [5]): decreased overall
- total time in REM (sleep/wake and cataplexy; [5]): decreased total time in REM
- REM:NR ratios (sleep/wake and cataplexy; all test conditions, first 6 h): REM:NR ratios decreased
- d2 ratios: effect on scopolamine impairment (recognition memory; COMPOUND A 90 mg/kg p.o. + scopolamine): significantly attenuated this effect of scopolamine
- preference for the novel object (exploration times) (recognition memory; COMPOUND A 30, 60, and 90 mg/kg p.o. + scopolamine, 3 hr delay): significant (p<0.05) preference for the novel object
- degradation accounted for by esterase and amidase enzymes ([1]; fresh human and rat plasma with amidase and esterase inhibitors): ~100%
- Human proteolytic activity relative to rat proteolytic activity ([1]; plasma, 60 min incubation): about 3 fold

Structure (SMILES): CCOc1ccccc1OC[C@@H]1CN(C(=O)OC(OC(=O)[C@H](N)C(C)C)C(C)C)CCO1 (stereo partly drawn) [COMPOUND C]
- number of omissions, post-hoc Dunnett (cognitive flexibility; COMPOUND C 120 mg/kg p.o. + PCP, first set-shift session): significant effects at the dose of 120 mg/kg
- number of perseverative errors vs PCP controls (cognitive flexibility; COMPOUND C 40, 80, 120 and 160 mg/kg p.o. + PCP): did not significantly affect
- number of trials to reach the criterion vs PCP controls (cognitive flexibility; COMPOUND C 40, 80, 120 and 160 mg/kg p.o. + PCP, first set-shift and first reversal sessions): did not significantly affect the number of trials to reach the criterion
- omissions vs PCP-treated rats (cognitive flexibility; COMPOUND C 40-160 mg/kg p.o. + PCP): increased omissions
